In PMC5448077, “Development of an orally available inhibitor of CLK1 for skipping a mutated dystrophin exon in Duchenne muscular dystrophy” (Scientific Reports, 2017):

Key:
Assay in all cases: biochemical
[1] = target: FGFR4(V550L) (Homo sapiens, UniProt P22455, V550L)
Summary of the method: (§1)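 Reactions at room temperature in HEPES buffer (20 mM, pH 7.5, 0.01% Triton X-100, 2 mM DTT) lasted 1 or 5 h depending on kinase, with substrate peptide and ATP-metal. Phosphorylation read by electrophoretic mobility shift or IMAP polarization; kinase activity computed as P/(P + S).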

[2] = target: T1, MER (Homo sapiens, UniProt Q12866)
T1 construct: gene MERTK
Summary of the method: as §1

[3] = target: RET (Homo sapiens, UniProt P07949)
Summary of the method: as §1

[4] = target: T2, YES(T348I) (Homo sapiens, UniProt P07947, T348I)
T2 construct: gene YES1
Summary of the method: as §1

[5] = target: T3, ABL (Homo sapiens, UniProt P00519)
T3 construct: gene ABL1
Summary of the method: as §1

[6] = target: SPHK1 (Homo sapiens, UniProt Q9NYA1)
Summary of the method: as §1

[7] = target: DYRK2 (Homo sapiens, UniProt Q92630)
Summary of the method: as §1

[8] = target: FLT4 (Homo sapiens, UniProt P35916)
Summary of the method: as §1

[9] = target: BRSK2 (Homo sapiens, UniProt Q8IWQ3)
Summary of the method: as §1

[10] = target: MET (Homo sapiens, UniProt P08581)
Summary of the method: as §1

[11] = target: KDR (Homo sapiens, UniProt P35968)
Summary of the method: as §1

[12] = target: T4, CaMK2δ (Homo sapiens, UniProt Q13557)
T4 construct: gene CAMK2D
Summary of the method: as §1

[13] = target: T5, MINK (Homo sapiens, UniProt Q8N4C8)
T5 construct: gene MINK1
Summary of the method: as §1

[14] = target: T6, RSK3 (Homo sapiens, UniProt Q15349)
T6 construct: gene RPS6KA2
Summary of the method: as §1

[15] = target: PAK4 (Homo sapiens, UniProt O96013)
Summary of the method: as §1

[16] = target: T7, ARG (Homo sapiens, UniProt P42684)
T7 construct: gene ABL2
Summary of the method: as §1

[17] = target: T8, skMLCK (Homo sapiens, UniProt Q9H1R3)
T8 construct: gene MYLK2
Summary of the method: as §1

[18] = target: T9, MSSK1 (Homo sapiens, UniProt Q9UPE1)
T9 construct: gene SRPK3
Summary of the method: as §1

[19] = target: CDK4/CycD3 (Homo sapiens, UniProt P11802)
Summary of the method: as §1

[20] = target: CLK2 (Homo sapiens, UniProt P49760)
Summary of the method: as §1

[21] = target: EPHA7 (Homo sapiens, UniProt Q15375)
Summary of the method: as §1

[22] = target: EGFR (Homo sapiens, UniProt P00533)
Summary of the method: as §1

[23] = target: T10, FAK (Homo sapiens, UniProt Q05397)
T10 construct: gene PTK2
Summary of the method: as §1

[24] = target: MARK1 (Homo sapiens, UniProt Q9P0L2)
Summary of the method: as §1

[25] = target: T11, ABL(T315I) (Homo sapiens, UniProt P00519, T315I)
T11 construct: gene ABL1
Summary of the method: as §1

[26] = target: T12, CaMK1α (Homo sapiens, UniProt Q14012)
T12 construct: gene CAMK1
Summary of the method: as §1

[27] = target: T13, CaMK2β (Homo sapiens, UniProt Q13554)
T13 construct: gene CAMK2B
Summary of the method: as §1

[28] = target: MELK (Homo sapiens, UniProt Q14680)
Summary of the method: as §1

[29] = target: HIPK1 (Homo sapiens, UniProt Q86Z02)
Summary of the method: as §1

[30] = target: AKT1 (Homo sapiens, UniProt P31749)
Summary of the method: as §1

[31] = target: JAK1 (Homo sapiens, UniProt P23458)
Summary of the method: as §1

T9 sequence (Q9UPE1 whole entry): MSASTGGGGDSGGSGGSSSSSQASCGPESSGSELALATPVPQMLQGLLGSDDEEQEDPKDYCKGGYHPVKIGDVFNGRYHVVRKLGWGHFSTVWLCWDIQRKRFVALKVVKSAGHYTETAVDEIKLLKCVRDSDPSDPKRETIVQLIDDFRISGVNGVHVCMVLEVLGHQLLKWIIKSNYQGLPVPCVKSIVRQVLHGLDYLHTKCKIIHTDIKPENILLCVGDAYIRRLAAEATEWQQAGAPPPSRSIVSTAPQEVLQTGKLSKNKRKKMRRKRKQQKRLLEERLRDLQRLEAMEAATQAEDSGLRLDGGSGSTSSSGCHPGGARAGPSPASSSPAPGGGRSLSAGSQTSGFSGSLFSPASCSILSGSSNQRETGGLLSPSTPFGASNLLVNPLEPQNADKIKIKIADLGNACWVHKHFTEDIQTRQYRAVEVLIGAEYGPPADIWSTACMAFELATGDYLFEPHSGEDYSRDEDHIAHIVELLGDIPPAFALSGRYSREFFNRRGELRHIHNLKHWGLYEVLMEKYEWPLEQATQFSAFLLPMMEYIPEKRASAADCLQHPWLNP
Chain of EPHA7 (Q15375 whole entry): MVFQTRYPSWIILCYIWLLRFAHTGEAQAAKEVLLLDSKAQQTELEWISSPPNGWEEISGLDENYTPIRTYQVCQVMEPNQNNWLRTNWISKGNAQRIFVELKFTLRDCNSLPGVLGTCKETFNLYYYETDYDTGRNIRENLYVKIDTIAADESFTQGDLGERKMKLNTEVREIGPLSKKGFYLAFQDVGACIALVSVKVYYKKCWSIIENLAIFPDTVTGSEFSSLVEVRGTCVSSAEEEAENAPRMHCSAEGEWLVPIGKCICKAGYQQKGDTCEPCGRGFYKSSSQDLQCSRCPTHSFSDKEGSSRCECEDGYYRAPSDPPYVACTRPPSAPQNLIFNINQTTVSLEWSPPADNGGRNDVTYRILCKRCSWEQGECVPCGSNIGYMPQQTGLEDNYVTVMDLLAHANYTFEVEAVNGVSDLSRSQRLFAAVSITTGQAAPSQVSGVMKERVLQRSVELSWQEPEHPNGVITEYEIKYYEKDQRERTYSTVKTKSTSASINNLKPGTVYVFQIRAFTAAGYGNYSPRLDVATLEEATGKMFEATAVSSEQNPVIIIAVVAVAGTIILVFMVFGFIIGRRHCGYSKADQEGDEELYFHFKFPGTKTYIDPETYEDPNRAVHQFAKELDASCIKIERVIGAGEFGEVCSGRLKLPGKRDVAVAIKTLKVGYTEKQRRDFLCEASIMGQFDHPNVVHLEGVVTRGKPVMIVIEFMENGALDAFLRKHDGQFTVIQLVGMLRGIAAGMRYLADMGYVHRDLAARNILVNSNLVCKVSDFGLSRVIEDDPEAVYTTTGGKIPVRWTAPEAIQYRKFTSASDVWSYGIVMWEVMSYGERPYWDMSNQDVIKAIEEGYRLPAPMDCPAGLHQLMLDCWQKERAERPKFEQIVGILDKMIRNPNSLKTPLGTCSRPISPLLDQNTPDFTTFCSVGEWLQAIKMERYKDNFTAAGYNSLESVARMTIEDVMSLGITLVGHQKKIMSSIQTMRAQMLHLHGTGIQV
Chain of MET (P08581 whole entry): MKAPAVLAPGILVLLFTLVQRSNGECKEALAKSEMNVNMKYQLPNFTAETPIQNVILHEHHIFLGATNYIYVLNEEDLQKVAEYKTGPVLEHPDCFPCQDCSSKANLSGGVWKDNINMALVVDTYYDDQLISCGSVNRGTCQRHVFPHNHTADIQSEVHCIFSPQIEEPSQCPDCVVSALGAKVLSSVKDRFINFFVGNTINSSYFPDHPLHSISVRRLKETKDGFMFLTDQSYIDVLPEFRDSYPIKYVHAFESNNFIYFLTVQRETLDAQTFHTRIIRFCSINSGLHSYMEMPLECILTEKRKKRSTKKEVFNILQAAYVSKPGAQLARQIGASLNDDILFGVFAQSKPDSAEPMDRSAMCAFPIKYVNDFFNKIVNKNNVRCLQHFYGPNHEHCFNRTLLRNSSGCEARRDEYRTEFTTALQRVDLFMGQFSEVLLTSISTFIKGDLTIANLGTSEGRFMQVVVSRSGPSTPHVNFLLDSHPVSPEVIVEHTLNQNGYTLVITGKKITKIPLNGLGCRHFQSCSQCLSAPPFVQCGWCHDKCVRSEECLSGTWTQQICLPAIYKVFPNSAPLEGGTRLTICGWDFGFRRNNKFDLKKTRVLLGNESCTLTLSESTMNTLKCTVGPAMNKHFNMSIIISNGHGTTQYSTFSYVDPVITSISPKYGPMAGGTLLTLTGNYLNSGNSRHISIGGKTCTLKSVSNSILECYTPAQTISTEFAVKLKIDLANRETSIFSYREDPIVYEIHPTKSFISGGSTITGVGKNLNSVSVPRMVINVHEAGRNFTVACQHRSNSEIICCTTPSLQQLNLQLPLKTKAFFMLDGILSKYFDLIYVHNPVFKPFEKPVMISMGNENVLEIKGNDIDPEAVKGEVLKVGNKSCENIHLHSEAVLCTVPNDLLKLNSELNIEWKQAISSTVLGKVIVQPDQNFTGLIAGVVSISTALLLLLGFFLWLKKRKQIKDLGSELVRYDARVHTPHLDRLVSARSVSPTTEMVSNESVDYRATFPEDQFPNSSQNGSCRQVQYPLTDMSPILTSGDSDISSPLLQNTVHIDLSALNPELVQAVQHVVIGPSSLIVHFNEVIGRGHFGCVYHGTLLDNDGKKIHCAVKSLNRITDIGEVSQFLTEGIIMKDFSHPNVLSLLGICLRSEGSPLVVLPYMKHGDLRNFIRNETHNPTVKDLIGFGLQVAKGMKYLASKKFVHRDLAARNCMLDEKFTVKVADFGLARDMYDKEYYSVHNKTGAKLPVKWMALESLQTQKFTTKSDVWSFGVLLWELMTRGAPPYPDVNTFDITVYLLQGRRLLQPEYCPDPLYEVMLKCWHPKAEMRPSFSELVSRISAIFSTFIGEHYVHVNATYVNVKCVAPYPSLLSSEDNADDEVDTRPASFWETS
Chain of HIPK1 (Q86Z02 whole entry): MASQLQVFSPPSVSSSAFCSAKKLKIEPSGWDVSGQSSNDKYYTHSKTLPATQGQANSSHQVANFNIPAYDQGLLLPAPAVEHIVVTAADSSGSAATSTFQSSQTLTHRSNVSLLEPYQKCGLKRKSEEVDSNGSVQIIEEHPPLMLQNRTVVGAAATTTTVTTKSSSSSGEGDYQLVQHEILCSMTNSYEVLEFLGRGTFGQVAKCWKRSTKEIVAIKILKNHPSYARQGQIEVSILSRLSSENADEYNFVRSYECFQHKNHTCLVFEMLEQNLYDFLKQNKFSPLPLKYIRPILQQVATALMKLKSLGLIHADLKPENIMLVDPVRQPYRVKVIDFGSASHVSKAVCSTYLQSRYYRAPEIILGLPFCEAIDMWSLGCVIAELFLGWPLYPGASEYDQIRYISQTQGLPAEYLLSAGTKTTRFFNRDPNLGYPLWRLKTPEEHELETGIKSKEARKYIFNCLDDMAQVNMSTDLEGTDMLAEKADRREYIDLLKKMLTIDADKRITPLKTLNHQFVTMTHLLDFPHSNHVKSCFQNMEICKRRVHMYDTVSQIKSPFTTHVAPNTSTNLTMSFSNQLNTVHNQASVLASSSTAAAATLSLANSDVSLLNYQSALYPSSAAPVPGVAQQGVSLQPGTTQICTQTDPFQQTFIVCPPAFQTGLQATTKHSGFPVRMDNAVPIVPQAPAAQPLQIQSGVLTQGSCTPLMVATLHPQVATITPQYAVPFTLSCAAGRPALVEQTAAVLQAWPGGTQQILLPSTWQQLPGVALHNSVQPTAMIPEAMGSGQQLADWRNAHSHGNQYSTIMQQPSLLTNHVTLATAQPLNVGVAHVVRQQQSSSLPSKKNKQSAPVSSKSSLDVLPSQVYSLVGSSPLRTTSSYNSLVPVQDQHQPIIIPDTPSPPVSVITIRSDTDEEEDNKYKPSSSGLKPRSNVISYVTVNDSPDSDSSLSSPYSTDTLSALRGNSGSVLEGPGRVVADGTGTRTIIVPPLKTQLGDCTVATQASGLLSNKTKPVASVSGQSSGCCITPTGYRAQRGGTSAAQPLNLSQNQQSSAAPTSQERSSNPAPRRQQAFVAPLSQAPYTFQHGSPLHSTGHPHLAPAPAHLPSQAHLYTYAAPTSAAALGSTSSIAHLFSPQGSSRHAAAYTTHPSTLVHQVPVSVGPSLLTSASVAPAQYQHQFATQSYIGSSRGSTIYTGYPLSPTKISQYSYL
Chain of PAK4 (O96013 whole entry): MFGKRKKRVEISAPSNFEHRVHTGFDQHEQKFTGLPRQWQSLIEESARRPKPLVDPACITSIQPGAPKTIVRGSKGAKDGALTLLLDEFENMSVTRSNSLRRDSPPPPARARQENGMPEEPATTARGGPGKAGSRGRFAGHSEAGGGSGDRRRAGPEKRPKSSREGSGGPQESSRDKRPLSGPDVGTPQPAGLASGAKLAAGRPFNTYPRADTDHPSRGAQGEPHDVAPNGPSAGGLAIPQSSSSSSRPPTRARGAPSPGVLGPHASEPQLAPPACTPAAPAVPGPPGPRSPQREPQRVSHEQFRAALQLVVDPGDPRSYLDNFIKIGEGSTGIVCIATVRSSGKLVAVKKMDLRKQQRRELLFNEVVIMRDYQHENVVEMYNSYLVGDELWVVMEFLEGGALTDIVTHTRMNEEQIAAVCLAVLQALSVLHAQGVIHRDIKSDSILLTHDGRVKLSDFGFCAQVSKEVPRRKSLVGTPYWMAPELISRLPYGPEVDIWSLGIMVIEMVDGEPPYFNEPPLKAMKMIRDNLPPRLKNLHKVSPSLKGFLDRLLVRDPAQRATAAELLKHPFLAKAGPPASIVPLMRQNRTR

c1cc(-c2ccc3[nH]ncc3c2)ccn1 [TG693, 5-(4-pyridinyl)-1H-indazole]
inhibition at 1 µM [1]: -36.6%
inhibition at 1 µM [2]: 3%
inhibition at 1 µM [3]: 4.8%
inhibition at 1 µM [4]: -1.4%
inhibition at 1 µM [5]: -1.3%
inhibition at 1 µM [6]: -2.3%
inhibition at 1 µM [7]: 77.2%
inhibition at 1 µM [8]: -0.3%
inhibition at 1 µM [9]: 6.7%
inhibition at 1 µM [10]: 13.2%
inhibition at 1 µM [11]: 0.1%
inhibition at 1 µM [12]: 1.4%
inhibition at 1 µM [13]: 23.2%
inhibition at 1 µM [14]: -4.8%
inhibition at 1 µM [15]: -13.7%
inhibition at 1 µM [16]: 4.7%
inhibition at 1 µM [17]: 0.9%
inhibition at 1 µM [18]: -7.3%
inhibition at 1 µM [19]: 5.4%
inhibition at 1 µM [20]: 14.9%
inhibition at 1 µM [21]: 5%
inhibition at 1 µM [22]: -10.7%
inhibition at 1 µM [23]: 3.6%
inhibition at 1 µM [24]: 13.3%
inhibition at 1 µM [25]: 6.5%
inhibition at 1 µM [26]: 1.5%
inhibition at 1 µM [27]: 2.8%
inhibition at 1 µM [28]: 5.7%
inhibition at 1 µM [29]: -3.5%
inhibition at 1 µM [30]: -1.3%
inhibition at 1 µM [31]: -0.7%
